Experimental data taken from PubChem BioAssay (NCI).
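GI50 marks 50% less growth. TGI is the concentration that stops growth completely.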

Key:
Assay in all cases: NCI anticancer screen, dose series, 384-well format
SK-MEL-2 melanoma = system: SK-MEL-2 melanoma
MDA-MB-468 breast = system: MDA-MB-468 breast
ACHN renal = system: ACHN renal
HCT-116 colon = system: HCT-116 colon
LOX IMVI melanoma = system: LOX IMVI melanoma
SN12C renal = system: SN12C renal
UACC-62 melanoma = system: UACC-62 melanoma
SK-OV-3 ovarian = system: SK-OV-3 ovarian
K-562 leukemia = system: K-562 leukemia
NCI-H460 NSCLC = system: NCI-H460 NSCLC
BT-549 breast = system: BT-549 breast
EKVX NSCLC = system: EKVX NSCLC
MDA-MB-231 breast = system: MDA-MB-231 breast

SMILES: O=C(/C=C/c1cccc(S(=O)(=O)Nc2ccccc2)c1)NO
- GI50 (SK-MEL-2 melanoma): 265 nM
- TGI (SK-MEL-2 melanoma): 558 nM
- GI50 (MDA-MB-468 breast): 196 nM
- TGI (MDA-MB-468 breast): 487 nM
- GI50 (ACHN renal): 493 nM
- TGI (ACHN renal): 1540 nM
- GI50 (HCT-116 colon): 205 nM
- TGI (HCT-116 colon): 630 nM
- GI50 (LOX IMVI melanoma): 385 nM
- TGI (LOX IMVI melanoma): 1410 nM
- GI50 (SN12C renal): 853 nM
- TGI (SN12C renal): 2250 nM
- GI50 (UACC-62 melanoma): 217 nM
- TGI (UACC-62 melanoma): 597 nM
- GI50 (SK-OV-3 ovarian): 490 nM
- TGI (SK-OV-3 ovarian): 1650 nM
- GI50 (K-562 leukemia): 188 nM
- TGI (K-562 leukemia): 394 nM
- GI50 (NCI-H460 NSCLC): 350 nM
- TGI (NCI-H460 NSCLC): 1500 nM
- GI50 (BT-549 breast): 925 nM
- TGI (BT-549 breast): 2820 nM
- GI50 (EKVX NSCLC): 1810 nM
- TGI (EKVX NSCLC): 8530 nM
- GI50 (MDA-MB-231 breast): 249 nM
- TGI (MDA-MB-231 breast): 575 nM
